Reference: ChEMBL document CHEMBL1201862, “PubChem BioAssay data set” (2004)
Activity calls are given as the source filed them.

Key:
[1] = (§1) Counterscreen for antagonists of the orexin 1 receptor (OX1R; HCRTR1): Fluorescence-based cell-based high throughput dose response assay to identify antagonists of the parental CHO cell line. [Related pubchem assays (depositor defined):AID434989, AID435008, AID463079, AID485270, AID492963, AID492964, AID492965, AID493232, AID504699, AID504701]; assay type: functional
[2] = target: T1, Orexin/Hypocretin receptor type 1 (Homo sapiens, UniProt O43613); assay: (§2) Fluorescence-based cell-based high throughput dose response assay for antagonists of the orexin 1 receptor (OX1R; HCRTR1). [Related pubchem assays (depositor defined):AID434989, AID435008, AID463079, AID485270, AID492963, AID492964, AID492965, AID493232, AID504717, AID504718]; assay type: functional
T1 sequence (O43613 whole entry): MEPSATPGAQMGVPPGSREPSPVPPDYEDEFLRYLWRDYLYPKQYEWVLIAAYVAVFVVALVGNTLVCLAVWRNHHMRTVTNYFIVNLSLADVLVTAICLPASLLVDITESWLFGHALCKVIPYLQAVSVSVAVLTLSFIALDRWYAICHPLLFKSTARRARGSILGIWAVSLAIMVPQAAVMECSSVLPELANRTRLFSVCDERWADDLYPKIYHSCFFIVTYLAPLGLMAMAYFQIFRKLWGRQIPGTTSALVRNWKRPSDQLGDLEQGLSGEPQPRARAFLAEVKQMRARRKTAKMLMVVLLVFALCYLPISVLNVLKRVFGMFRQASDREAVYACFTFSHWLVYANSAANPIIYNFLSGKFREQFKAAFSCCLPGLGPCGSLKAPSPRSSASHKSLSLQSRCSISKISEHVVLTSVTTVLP

Orexin receptor type 2 [3] = target: T2, Orexin receptor type 2 (Homo sapiens, UniProt O43614); assay: Counterscreen assay for antagonists of the orexin 1 receptor (OX1R; HCRTR1): Fluorescence-based cell-based dose response assay for antagonists of the orexin 2 receptor (OX2R; HCRTR2), run by assay provider.; assay type: functional
T2 sequence (O43614 whole entry): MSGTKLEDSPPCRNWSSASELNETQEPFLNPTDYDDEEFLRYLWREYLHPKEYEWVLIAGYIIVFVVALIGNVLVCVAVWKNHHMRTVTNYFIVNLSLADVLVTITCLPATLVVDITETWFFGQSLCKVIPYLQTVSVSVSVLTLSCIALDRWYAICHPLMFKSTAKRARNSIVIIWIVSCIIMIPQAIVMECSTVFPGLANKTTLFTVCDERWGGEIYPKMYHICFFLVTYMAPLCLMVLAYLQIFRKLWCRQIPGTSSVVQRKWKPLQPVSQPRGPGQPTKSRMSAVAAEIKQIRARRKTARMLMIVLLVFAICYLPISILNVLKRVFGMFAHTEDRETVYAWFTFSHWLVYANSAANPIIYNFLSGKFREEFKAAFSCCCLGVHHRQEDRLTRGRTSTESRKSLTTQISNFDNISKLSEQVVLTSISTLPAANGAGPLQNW

CHO-K1 = assay: as §1, with “Homogeneous time resolved fluorescence (HTRF)-based” for “Fluorescence-based”, “cell-based” for “cell-based high throughput”, “CHO-K1” for “CHO”; assay type: functional; conditions: Cricetulus griseus;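 further: potency for inhibition of ATP-stimulated IP1 production as antagonists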
Orexin receptor type 2 [4] = target: T2, Orexin receptor type 2; assay: Counterscreen assay for antagonists of the orexin 1 receptor (OX1R; HCRTR1): Homogeneous Time Resolved Fluorescence (HTRF)-based cell-based dose response assay for antagonists of the orexin 2 receptor (OX2R; HCRTR2), run by assay provider.; assay type: functional
[5] = target: T1, Orexin/Hypocretin receptor type 1; assay: as §2, with “Homogeneous Time Resolved Fluorescence (HTRF)-based” for “Fluorescence-based”; assay type: functional
[6] = target: Dual specificity protein phosphatase 3 (Homo sapiens, UniProt P51452); assay: VHR phosphatase inhibition, dose response, selectivity assay for STEP inhibitor project, biochemical (AID 602374); assay type: functional; conditions: read-out: IC50_Mean
[7] = target: T3, Tyrosine-protein phosphatase non-receptor type 11 (Homo sapiens, UniProt Q06124); assay: SHP2 phosphatase inhibition, dose response, selectivity assay for STEP inhibitor project, biochemical (AID 602367); assay type: functional; conditions: read-out: IC50_Mean
T3 sequence (Q06124 whole entry): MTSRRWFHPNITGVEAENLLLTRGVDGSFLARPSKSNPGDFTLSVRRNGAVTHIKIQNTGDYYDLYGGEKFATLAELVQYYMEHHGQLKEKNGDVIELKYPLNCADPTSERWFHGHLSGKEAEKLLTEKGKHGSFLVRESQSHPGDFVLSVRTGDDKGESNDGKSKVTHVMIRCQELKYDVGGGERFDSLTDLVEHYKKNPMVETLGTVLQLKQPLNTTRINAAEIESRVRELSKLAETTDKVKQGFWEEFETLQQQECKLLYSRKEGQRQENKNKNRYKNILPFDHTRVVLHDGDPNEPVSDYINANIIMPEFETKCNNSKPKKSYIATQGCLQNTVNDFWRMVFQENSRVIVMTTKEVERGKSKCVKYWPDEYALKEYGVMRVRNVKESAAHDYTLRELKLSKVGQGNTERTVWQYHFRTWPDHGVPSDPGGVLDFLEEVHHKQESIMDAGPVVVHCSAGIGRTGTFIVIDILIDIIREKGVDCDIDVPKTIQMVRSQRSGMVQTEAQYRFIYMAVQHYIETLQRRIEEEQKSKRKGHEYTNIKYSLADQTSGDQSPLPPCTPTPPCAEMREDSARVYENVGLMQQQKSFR

[8] = target: T4, Tyrosine-protein phosphatase non-receptor type 5 (Homo sapiens, UniProt P54829); assay: STEP phosphatase inhibitors, confirmation, biochemical, fluorescence intensity, uHTS hits (AID 602372); assay type: functional; conditions: read-out: IC50_Mean
T4 sequence (P54829 whole entry): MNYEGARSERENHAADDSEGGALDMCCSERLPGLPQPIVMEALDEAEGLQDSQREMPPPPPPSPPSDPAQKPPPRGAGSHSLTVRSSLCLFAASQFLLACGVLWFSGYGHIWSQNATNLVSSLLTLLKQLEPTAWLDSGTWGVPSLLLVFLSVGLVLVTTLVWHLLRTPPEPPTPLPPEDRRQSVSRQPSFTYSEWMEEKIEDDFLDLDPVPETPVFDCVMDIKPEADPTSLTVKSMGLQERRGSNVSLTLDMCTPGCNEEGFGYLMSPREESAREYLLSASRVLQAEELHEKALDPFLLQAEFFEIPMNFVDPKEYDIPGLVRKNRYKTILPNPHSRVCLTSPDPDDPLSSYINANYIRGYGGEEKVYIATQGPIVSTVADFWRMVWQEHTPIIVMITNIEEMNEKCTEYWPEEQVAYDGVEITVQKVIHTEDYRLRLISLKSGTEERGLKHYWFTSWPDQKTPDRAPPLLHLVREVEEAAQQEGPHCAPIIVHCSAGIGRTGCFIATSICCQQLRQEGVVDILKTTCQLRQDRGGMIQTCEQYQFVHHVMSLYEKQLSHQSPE

[9] = target: T5, Apoptotic protease-activating factor 1 (Homo sapiens, UniProt O14727); assay: SAR analysis of small molecule Activators of Apaf-1 in a Fluorescent assay.; assay type: functional; conditions: read-out: EC50_Mean;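 further: caspase-3 cleavage of fluorogenic Rh110 DEVD substrate downstream of apoptosome activation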
T5 sequence (O14727 whole entry): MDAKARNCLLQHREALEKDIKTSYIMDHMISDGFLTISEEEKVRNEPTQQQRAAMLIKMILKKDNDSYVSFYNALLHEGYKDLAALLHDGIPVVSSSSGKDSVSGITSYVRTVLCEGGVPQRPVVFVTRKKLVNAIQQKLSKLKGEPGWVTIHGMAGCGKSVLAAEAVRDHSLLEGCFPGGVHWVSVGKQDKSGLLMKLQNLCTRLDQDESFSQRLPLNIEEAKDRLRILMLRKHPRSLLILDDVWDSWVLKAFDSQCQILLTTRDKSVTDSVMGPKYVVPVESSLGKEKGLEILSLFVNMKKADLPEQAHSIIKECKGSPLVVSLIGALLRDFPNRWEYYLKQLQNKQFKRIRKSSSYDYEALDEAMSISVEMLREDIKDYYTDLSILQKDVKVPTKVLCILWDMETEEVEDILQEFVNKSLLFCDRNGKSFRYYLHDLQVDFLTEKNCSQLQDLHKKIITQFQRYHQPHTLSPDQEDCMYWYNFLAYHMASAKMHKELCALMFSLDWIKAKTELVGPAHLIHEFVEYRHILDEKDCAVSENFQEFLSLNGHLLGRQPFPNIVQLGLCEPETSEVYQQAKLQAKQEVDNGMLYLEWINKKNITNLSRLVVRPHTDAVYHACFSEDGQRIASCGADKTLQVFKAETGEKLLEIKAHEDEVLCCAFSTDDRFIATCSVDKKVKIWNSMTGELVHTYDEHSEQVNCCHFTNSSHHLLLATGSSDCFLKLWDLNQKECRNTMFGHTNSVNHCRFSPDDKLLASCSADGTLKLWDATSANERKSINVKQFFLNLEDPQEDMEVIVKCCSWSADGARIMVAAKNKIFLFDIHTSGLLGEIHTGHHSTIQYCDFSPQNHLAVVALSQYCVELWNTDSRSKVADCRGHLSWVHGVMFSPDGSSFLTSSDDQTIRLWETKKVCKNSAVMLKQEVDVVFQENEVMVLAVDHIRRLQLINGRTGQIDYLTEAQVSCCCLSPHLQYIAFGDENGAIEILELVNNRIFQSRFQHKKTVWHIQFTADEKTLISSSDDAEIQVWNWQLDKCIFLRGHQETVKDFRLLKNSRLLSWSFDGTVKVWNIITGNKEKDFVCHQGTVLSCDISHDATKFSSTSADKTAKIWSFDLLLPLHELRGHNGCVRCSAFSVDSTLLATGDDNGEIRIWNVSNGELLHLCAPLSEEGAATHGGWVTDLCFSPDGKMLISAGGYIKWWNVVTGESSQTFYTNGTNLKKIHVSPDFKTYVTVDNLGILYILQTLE

Cytochrome P450 1A2 = target: T6, Cytochrome P450 1A2 (Homo sapiens, UniProt P05177);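 further: PubChem cytochrome P450 panel assay, CYP1A2 panel member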
T6 sequence (P05177 whole entry): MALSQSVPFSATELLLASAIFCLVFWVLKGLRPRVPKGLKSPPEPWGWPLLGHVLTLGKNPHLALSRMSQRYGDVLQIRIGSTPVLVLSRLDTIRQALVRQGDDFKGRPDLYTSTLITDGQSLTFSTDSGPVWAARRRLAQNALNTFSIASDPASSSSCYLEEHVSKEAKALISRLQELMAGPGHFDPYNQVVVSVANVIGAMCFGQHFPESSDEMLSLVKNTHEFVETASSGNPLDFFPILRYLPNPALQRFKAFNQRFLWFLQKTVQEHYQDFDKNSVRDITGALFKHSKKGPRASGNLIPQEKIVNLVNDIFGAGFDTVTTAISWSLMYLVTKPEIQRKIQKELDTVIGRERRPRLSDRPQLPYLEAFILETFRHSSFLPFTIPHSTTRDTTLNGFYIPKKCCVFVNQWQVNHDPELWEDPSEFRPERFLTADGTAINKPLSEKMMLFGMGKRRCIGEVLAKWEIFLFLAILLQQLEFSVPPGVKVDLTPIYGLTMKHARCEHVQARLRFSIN

[10] = inhibitors of firefly luciferase expression or activity, dose response, H4 neuroglioma cells, luminescence (AID 1990); assay type: functional, cell-based
[11] = inhibitors of SNCA 5'UTR-driven reporter translation, confirmation, H4 neuroglioma cells, luminescence (AID 1988); assay type: functional, cell-based
[12] = Luminescence Cell-Based Dose Response HTS to Identify Inhibitors of 5'UTR Stem-Loop Driven Prion Protein mRNA Translation in H4 Neuroglioblastoma Cells. [Related pubchem assays: 1827 (Project Summary), 1813 (Primary HTS)]; assay type: functional
[13] = target: T7, Mitochondrial peptide methionine sulfoxide reductase (Bos taurus, UniProt P54149); assay type: functional;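 further: absorbance read-out, biochemical high-throughput dose-response screen for MsrA inhibitors, confirmatory; recombinant bovine MsrA coupled to E. coli TrxB with NADPH and selenocystamine; potency is for inhibitors of MsrA activity on DMSO substrate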
T7 sequence (P54149 whole entry): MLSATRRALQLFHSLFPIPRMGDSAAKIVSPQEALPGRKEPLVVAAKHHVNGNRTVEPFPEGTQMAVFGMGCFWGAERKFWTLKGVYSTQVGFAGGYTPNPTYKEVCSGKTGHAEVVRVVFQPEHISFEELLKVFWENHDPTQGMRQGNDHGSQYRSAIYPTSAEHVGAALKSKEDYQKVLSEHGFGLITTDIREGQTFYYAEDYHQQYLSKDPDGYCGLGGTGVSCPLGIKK

Sequence of Dual specificity protein phosphatase 3 (P51452 whole entry): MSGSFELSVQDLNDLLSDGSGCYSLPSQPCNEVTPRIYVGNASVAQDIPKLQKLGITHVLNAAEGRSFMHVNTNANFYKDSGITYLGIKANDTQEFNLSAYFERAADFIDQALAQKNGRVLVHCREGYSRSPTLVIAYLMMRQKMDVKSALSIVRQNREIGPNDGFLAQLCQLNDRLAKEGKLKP

Structure (SMILES) | IC50 [1] | IC50 [2] | IC50 (Orexin receptor type 2 [3]) | IC50 (CHO-K1) | IC50 (Orexin receptor type 2 [4]) | IC50 [5] | other results
C=CCn1c(SCC(=O)Nc2cc3oc4ccccc4c3cc2OC)nnc1-c1cnccn1 | > 49.7 µM (inactive) | 3.14 µM (active) | 10.4 µM (inactive) | > 66.2 µM (inactive) | > 50 µM (inactive) | 0.339 µM (active) | 
CSc1cccc(NC(=O)C2CCCN(S(=O)(=O)c3ccc(F)cc3)C2)c1 (stereo unspecified) | > 49.8 µM (inactive) | 10.4 µM (inactive) | 8.4 µM (active) | > 66.2 µM (inactive) | 14.2 µM (inactive) | 1.59 µM (active) | 
Cn1cc(CC(=O)Nc2cccc(C#N)c2)c2ccccc21 |  |  |  |  |  |  | IC50 [6]: 51.9 µM (inactive); IC50 [7]: > 80 µM (inactive); IC50 [8]: > 80 µM (inactive)
Cc1csc2c(=O)sc(NC(=O)c3ccco3)nc12 |  |  |  |  |  |  | EC50 [9]: > 100 µM (inactive)
Cc1cccc(NC(=O)NNC(=O)c2cc(-c3ccccc3Cl)nc3ccccc23)c1 | 48 µM (inactive) | 13.5 µM (inactive) | 16.4 µM (inactive) | > 66.3 µM (inactive) | 27.1 µM (inactive) | 0.815 µM (active) | AC50 (Cytochrome P450 1A2): 15.8 µM (inconclusive)
O=[N+]([O-])c1c(Nc2ccccc2O)cc(N2CCOCC2)c2nonc12 |  |  |  |  |  |  | EC50 [10]: 25.1 µM (active); EC50 [11]: 111 µM (active); EC50 [12]: 30.5 µM (active); IC50 [13]: 67.7 µM (inactive)
COc1ccc(NC(=S)N2CCC(N(C)CC3CCCO3)CC2)cc1Cl (stereo unspecified) |  |  |  |  |  |  | IC50 [6]: 1.37 µM (active); IC50 [7]: 3.65 µM (active); IC50 [8]: 27.2 µM (inactive)
CC(Cc1ccccc1)C(=O)O (stereo unspecified) |  |  |  |  |  |  | EC50 [9]: > 100 µM (inactive)
